Article PMC10436262, “Structure-Based Design of Inhibitors of the m^6A-RNA Writer Enzyme METTL3” (ACS Bio & Med Chem Au, 2023)
Several values for one entry are separate records, joined by “and”; a condition that tells them apart may be missing. Equal values may be shown once. Read-outs that look alike come from different tables or passages of the source.

Biological target: T1, METTL3/METTL14 (Homo sapiens, UniProt Q86U44)
T1 construct: made in house; host or cells: Sf9 insect cells (baculovirus)
T1 sequence (Q86U44 whole entry): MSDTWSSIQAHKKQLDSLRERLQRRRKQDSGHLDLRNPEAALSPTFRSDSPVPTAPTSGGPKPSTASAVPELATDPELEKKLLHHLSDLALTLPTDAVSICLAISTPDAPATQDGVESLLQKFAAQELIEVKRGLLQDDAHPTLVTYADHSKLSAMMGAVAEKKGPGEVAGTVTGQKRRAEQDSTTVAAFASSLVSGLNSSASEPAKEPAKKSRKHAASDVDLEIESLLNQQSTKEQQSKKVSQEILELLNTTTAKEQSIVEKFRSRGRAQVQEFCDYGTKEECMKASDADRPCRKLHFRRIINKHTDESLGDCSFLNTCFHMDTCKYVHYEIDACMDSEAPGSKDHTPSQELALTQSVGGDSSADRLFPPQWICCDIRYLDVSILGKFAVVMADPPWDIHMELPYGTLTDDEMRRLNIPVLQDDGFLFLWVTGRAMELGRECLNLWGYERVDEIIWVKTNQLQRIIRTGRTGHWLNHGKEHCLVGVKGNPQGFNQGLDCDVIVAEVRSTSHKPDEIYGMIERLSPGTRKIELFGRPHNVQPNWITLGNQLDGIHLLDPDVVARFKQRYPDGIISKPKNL
T1 sequence (Q9HCE5 whole entry partner): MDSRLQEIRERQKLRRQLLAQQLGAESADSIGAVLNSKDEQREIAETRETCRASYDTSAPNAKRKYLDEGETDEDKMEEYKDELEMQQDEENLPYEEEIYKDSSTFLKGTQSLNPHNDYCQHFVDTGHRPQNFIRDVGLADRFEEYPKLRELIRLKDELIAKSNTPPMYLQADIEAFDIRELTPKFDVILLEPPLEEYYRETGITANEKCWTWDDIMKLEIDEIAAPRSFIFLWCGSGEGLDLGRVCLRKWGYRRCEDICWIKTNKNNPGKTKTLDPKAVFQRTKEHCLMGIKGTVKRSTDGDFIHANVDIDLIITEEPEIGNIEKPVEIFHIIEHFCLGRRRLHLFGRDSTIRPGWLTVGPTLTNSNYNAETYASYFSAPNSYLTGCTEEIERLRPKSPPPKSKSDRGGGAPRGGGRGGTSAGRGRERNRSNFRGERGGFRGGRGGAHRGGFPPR
Assay: METTL3 enzymatic inhibition assay by homogeneous time-resolved fluorescence (HTRF)
Format: biochemical
Details: for IC50: HTRF assay; for fold improvement in affinity (IC50) vs compound 4: relative to reference compound 4; for S/R Ratio: ratio of IC50 of S isomer to R isomer
Procedure: Compound potencies were evaluated by using a previously reported METTL3 inhibition assay. […] Tested compounds that inhibit METTL3 decrease the m^6A level and thus reduce the HTRF signal. The biochemical assay was performed, as described previously.[19] The IC50 values derived from fitting a dose–response curve to the data using nonlinear regression. The IC50 values are given as an average of at least two independent measurements for each compound in the text.

[1] = racemic mixture, read-out: IC50
[2] = R isomer, read-out: IC50 (µM) R
[3] = S isomer, read-out: IC50 (µM) S

IC50 [1] [µM] | SMILES | further results
430 | CNc1cc(N2CCCC(O)(CNC(=O)c3ccc(CN4CCCCC4)cc3)C2)ncn1 (stereo not shown) [compound 1] | 
14 | O=C(NCC1(O)CCCN(c2cc(NCc3ccccc3)ncn2)C1)c1ccc(CN2CCCCC2)cc1 (stereo not shown) [compound 40] | 
8.4 | O=C(NCC1(O)CCCN(c2cc(NCc3ccccc3)ncn2)C1)c1ccc(CN2CCCC3CCCCC32)cc1 (stereo not shown) [compound 42] | 
0.3 | CC1(C)CCN(Cc2ccc(C(=O)NCC3(O)CCCN(c4cc(NCc5cccc(S(N)(=O)=O)c5)ncn4)C3)c(O)c2)CC1 (stereo not shown) [compound 52] | 
0.82 | CC1(C)CCN(Cc2ccc(C(=O)NCC3(O)CCCN(c4cc(NCc5cccc6sccc56)ncn4)C3)cc2)CC1 (stereo not shown) [compound 10] | fold improvement in affinity (IC50) vs compound 4: 10 fold
0.19 | CNC(=O)c1cccc(CNc2cc(N3CCCC(O)(CNC(=O)c4ccc(CN5CCC(C)(C)CC5)cc4O)C3)ncn2)c1 (stereo not shown) [compound 51] | 
12 | CC1CCN(Cc2ccc(C(=O)NCC3(O)CCCN(c4cc(NCc5ccccc5)ncn4)C3)cc2)C2CCCCC12 (stereo not shown) [compound 41] | 
> 10 | CC1(C)CCN(Cc2ccc(C(=O)NCC3(O)CCCN(c4cc(NCc5ccoc5)ncn4)C3)cc2)CC1 (stereo not shown) [compound 11] | 
0.36 | CC1(C)CCN(Cc2ccc3c(NCC4(O)CCCN(c5cc(NCc6ccccc6)ncn5)C4)cccc3c2)CC1 (stereo not shown) [compound 46] | IC50 [2]: 0.2 µM; IC50 [3]: 12 µM; S/R Ratio: 60.0; fold improvement in affinity (IC50) vs compound 16 (relative to reference compound 16): 5 fold and 4.7 fold
7.7 | O=C(NCC1(O)CCCN(c2cc(NCc3ccccc3)ncn2)C1)c1ccc(CN2CC3(CCCC3)C2)cc1 (stereo not shown) [compound 32] | 
3.3 | O=C(NCC1(O)CCCN(c2cc(NCc3ccccc3)ncn2)C1)c1ccc(CN2CCC3(CC2)CC3)cc1 (stereo not shown) [compound 17] | 
9.3 | CC1(C)CN(Cc2ccc(C(=O)NCC3(O)CCCN(c4cc(NCc5ccccc5)ncn4)C3)cc2)C1 (stereo not shown) [compound 27] | 
2.9 | CC1(C)CCN(Cc2ccc3nc(CC4(O)CCCN(c5cc(NCc6ccccc6)ncn5)C4)[nH]c3c2)CC1 (stereo not shown) [compound 47] | 
> 10 | CCCCN(Cc1ccc(C(=O)NCC2(O)CCCN(c3cc(NCc4ccccc4)ncn3)C2)cc1)C1CCCCC1 (stereo not shown) [compound 26] | 
17.6 | CC1(CCO)CCN(Cc2ccc(C(=O)NCC3(O)CCCN(c4cc(NCc5ccccc5)ncn4)C3)cc2)CC1 (stereo not shown) [compound 20] | 
60 | CC1(C)CCN(CCCCC(=O)NCC2(O)CCCN(c3cc(NCc4ccccc4)ncn3)C2)CC1 (stereo not shown) [compound 49] | 
1.8 | CC1(C)CCN(Cc2ccc(C(=O)NCC3(O)CCCN(c4cc(NCc5ccsc5)ncn4)C3)cc2)CC1 (stereo not shown) [compound 12] | 
> 10 | CCCN(Cc1ccc(C(=O)NCC2(O)CCCN(c3cc(NCc4ccccc4)ncn3)C2)cc1)C1CCCC1 (stereo not shown) [compound 37] | 
2.1 | CC1(C)CCN(Cc2ccc(C(=O)NCC3(O)CCCN(c4cc(NCc5cccc6nc[nH]c56)ncn4)C3)cc2)CC1 (stereo not shown) [compound 9] | 
0.27 | CC(C)C1N(Cc2ccc(C(=O)NCC3(O)CCCN(c4cc(NCc5ccccc5)ncn4)C3)c(O)c2)CC12CCC2 (stereo not shown) [compound 50] | 
15 | CC(C)C1(O)CN(Cc2ccc(C(=O)NCC3(O)CCCN(c4cc(NCc5ccccc5)ncn4)C3)cc2)C1 (stereo not shown) [compound 23] | 

Further lines, the compound ahead of its results:

SMILES | IC50 [1] [µM] | further results
CC(C)(C)CNCc1ccc(C(=O)NCC2(O)CCCN(c3cc(NCc4ccccc4)ncn3)C2)cc1 (stereo not shown) [compound 35] | 5 | 
CC1(C)CCN(Cc2ccc(C(=O)NCC3(O)CCCN(c4cc(NCc5ccccc5)ncn4)C3)cn2)CC1 (stereo not shown) [compound 45] | 10 | 
CCCCC1(C)CCN(Cc2ccc(C(=O)NCC3(O)CCCN(c4cc(NCc5ccccc5)ncn4)C3)cc2)CC1 (stereo not shown) [compound 19] | 5.5 | 
CC1(C)CCN(Cc2ccc(C(=O)NCC3(O)CCCN(c4cc(NCc5cccc6ccccc56)ncn4)C3)cc2)CC1 (stereo not shown) [compound 15] | 0.77 | fold improvement in affinity (IC50) vs compound 4: 10 fold
CCCN(Cc1ccc(C(=O)NCC2(O)CCCN(c3cc(NCc4ccccc4)ncn3)C2)cc1)C1CCCCC1 (stereo not shown) [compound 38] | > 10 | 
CCCCN(Cc1ccc(C(=O)NCC2(O)CCCN(c3cc(NCc4ccccc4)ncn3)C2)cc1)C1CCCC1 (stereo not shown) [compound 39] | > 10 | 
CC(C)CNCc1ccc(C(=O)NCC2(O)CCCN(c3cc(NCc4ccccc4)ncn3)C2)cc1 (stereo not shown) [compound 33] | 5.1 | 
CC(F)C1CCN(Cc2ccc(C(=O)NCC3(O)CCCN(c4cc(NCc5ccccc5)ncn4)C3)cc2)CC1 (stereo not shown) [compound 21] | 23 | 
CNc1cc(N2CCCC(O)(CNC(=O)c3ccc(CN4CCC(C)CC4)cc3)C2)ncn1 (stereo not shown) [compound 3] | 16 | 
CCC1CCN(Cc2ccc(C(=O)NCC3(O)CCCN(c4cc(NC)ncn4)C3)cc2)CC1 (stereo not shown) [compound 6] | 230 | 
CNc1cc(N2CCCC(O)(CNC(=O)c3ccc(CN4CCC(C)(C)CC4)cc3)C2)ncn1 (stereo not shown) [compound 4] | 8.2 | fold improvement in affinity (IC50) vs compound 1 (relative to hit compound 1): 50 fold and 52.4 fold
CCC1(C)CCN(Cc2ccc(C(=O)NCC3(O)CCCN(c4cc(NCc5ccccc5)ncn4)C3)cc2)CC1 (stereo not shown) [compound 18] | 4.7 | 
CNc1cc(N2CCCC(O)(CNC(=O)c3ccc(CN4CCC(C)(CN)CC4)cc3)C2)ncn1 (stereo not shown) [compound 8] | 32 | 
CC1(C)CCN(Cc2ccc(C(=O)NCC3(O)CCCN(c4cc(NCc5ccccc5)ncn4)C3)cc2)CC1 (stereo not shown) [compound 16] | 1.7 | IC50 [2]: 1.2 µM; IC50 [3]: 7.1 µM; fold difference in activity between R and S configurations (R more active than S): ~6 fold; S/R Ratio: 5.9; fold improvement in affinity (IC50) vs compound 4: 4.8 fold
CC1(C)CCN(Cc2ccc(N3CC4(CCN(c5cc(NCc6ccccc6)ncn5)CC4)OCC3=O)cn2)CC1 [compound 48] | 5.1 | 
CNc1cc(N2CCCC(O)(CNC(=O)c3ccc(CN4CCNCC4)cc3)C2)ncn1 (stereo not shown) [compound 5] | 179 | 
CC(C)C1N(Cc2ccc(C(=O)NCC3(O)CCCN(c4cc(NCc5ccccc5)ncn4)C3)cc2)CC12CCC2 (stereo not shown) [compound 30] | 0.13 | 
CNc1cc(N2CCCC(O)(CNC(=O)c3ccc(CN4CCC(C)(N)CC4)cc3)C2)ncn1 (stereo not shown) [compound 7] | 42 | 
O=C(NCC1(O)CCCN(c2cc(NCc3ccccc3)ncn2)C1)c1ccc(CN2CC3(CCC3)C2)cc1 (stereo not shown) [compound 29] | 1.6 | IC50 [2]: 0.53 µM; IC50 [3]: 1.3 µM; S/R Ratio: 2.5
CC(C)CCNCc1ccc(C(=O)NCC2(O)CCCN(c3cc(NCc4ccccc4)ncn3)C2)cc1 (stereo not shown) [compound 34] | 17.7 | 
O=C(NCC1(O)CCCN(c2cc(NCc3ccccc3)ncn2)C1)c1ccc(CNCC2CCC2)cc1 (stereo not shown) [compound 36] | 5.2 | 
CC1(F)CC12CCN(Cc1ccc(C(=O)NCC3(O)CCCN(c4cc(NCc5ccccc5)ncn4)C3)cc1)CC2 (stereo not shown) [compound 22] | 23 | 
CC(Nc1cc(N2CCCC(O)(CNC(=O)c3ccc(CN4CCC(C)(C)CC4)cc3)C2)ncn1)c1ccccc1 (stereo not shown) [compound 13] | 12 | 
CCC(CC)CNCc1ccc(C(=O)NCC2(O)CCCN(c3cc(NCc4ccccc4)ncn3)C2)cc1 (stereo not shown) [compound 28] | 7.4 | 
CC1(C)CCN(Cc2ccc(C(=O)NCC3(O)CCCN(c4cc(NC(C)(C)c5ccccc5)ncn4)C3)cc2)CC1 (stereo not shown) [compound 14] | 31 | 
O=C(NCC1(O)CCCN(c2cc(NCc3ccccc3)ncn2)C1)c1ccc(CN2CC3(CCC3)C2C2CC2)cc1O (stereo not shown) [compound 53] | 0.84 | 
CSc1cc(CN2CCC(C)(C)CC2)ccc1C(=O)NCC1(O)CCCN(c2cc(NCc3ccccc3)ncn2)C1 (stereo not shown) [compound 44] | 1.1 | 
CC1(O)CCN(Cc2ccc(C(=O)NCC3(O)CCCN(c4cc(NCc5ccccc5)ncn4)C3)cc2)CC1 (stereo not shown) [compound 24] | 8.4 | 
